Activity calls are given as the source filed them. The rule behind the calls is not given here.
Tests used:
[1] = system: Candida albicans; assay: Antifungal activity against wild-type Candida albicans SC5314 assessed as reduction in filamentous growth; format: functional, organism-based
[2] = system: Candida albicans; assay: Antifungal activity against Candida albicans DSY654 assessed as reduction in filamentous growth; format: functional, organism-based
[3] = system: Candida albicans; assay: Downregulation of HWP1 gene expression in Candida albicans DSY654 at 4 ug/ml after 1.5 to 6 hrs by RT-qPCR assay; format: functional, organism-based
[4] = system: Candida albicans; assay: Upregulation of NRG1 gene expression in Candida albicans DSY654 at 4 ug/ml after 1.5 to 6 hrs by RT-qPCR assay relative to control; format: functional
[5] = system: Candida albicans; assay: Antifungal activity against Candida albicans DSY654 assessed as inhibition of biofilm formation incubated for 24 hrs by fluorescent microscopy; format: functional, organism-based
[6] = system: Candida albicans; assay: Antifungal activity against Candida albicans DSY654 assessed as reduction in number of adherent fungal cells on human A549 cells after 90 mins by calcofluor White staining based fluorescent microscopy; format: functional, organism-based
[7] = system: Candida albicans; assay: Downregulation of RAS1 gene expression in Candida albicans DSY654 at 4 ug/ml after 1.5 to 6 hrs by RT-qPCR assay; format: functional, organism-based
[8] = system: Candida albicans; assay: Antifungal activity against Candida albicans DSY654 assessed as inhibition of yeast to hyphal morphological transition measured at 6 hrs by fluorescent microscopy; format: functional, organism-based
[9] = system: Candida albicans; assay: Antifungal activity against Candida albicans DSY654 assessed as inhibition of biofilm formation incubated for 24 hrs by XTT assay; format: functional, organism-based
[10] = system: Candida albicans; assay: Antifungal activity against Candida albicans DSY654 assessed as inhibition of massive filamentation at 4 to 32 ug/ml; format: functional, organism-based
[11] = system: Candida albicans; assay: Downregulation of ECE1 gene expression in Candida albicans DSY654 at 4 ug/ml after 1.5 to 6 hrs by RT-qPCR assay; format: functional, organism-based
[12] = system: Candida albicans; assay: Downregulation of CDC35 gene expression in Candida albicans DSY654 at 4 ug/ml after 1.5 to 6 hrs by RT-qPCR assay; format: functional, organism-based
[13] = system: Candida albicans; assay: Downregulation of UME6 gene expression in Candida albicans DSY654 at 4 ug/ml after 1.5 to 6 hrs by RT-qPCR assay; format: functional, organism-based
[14] = system: Candida albicans; assay: Downregulation of ALS3 gene expression in Candida albicans DSY654 at 4 ug/ml after 1.5 to 6 hrs by RT-qPCR assay; format: functional, organism-based
[15] = system: Candida albicans; assay: Upregulation of PDE2 gene expression in Candida albicans DSY654 at 4 ug/ml after 1.5 to 6 hrs by RT-qPCR assay; format: functional, organism-based

C=C1[C@@H](O)[C@@H]2[C@H](C[C@@H](OC(=O)CCc3ccccc3)/C(CO)=C/[C@@H](OC(C)=O)[C@H]1O)[C@]2(C)CO
Activity [1]: inactive

CC(C)[C@@]1(O)C(=O)C[C@]2(C)CC3=C(C(=O)C[C@@]3(C)O)[C@@H](C)CC[C@H]21
Activity [1]: inactive

CC1=C2C[C@]3(C)CC(=O)[C@@](O)(C(C)C)[C@H]3CC[C@H](C)[C@]2(O)CC1=O
Activity [1]: inactive

CC(C)[C@@]1(O)C(=O)C[C@]2(C)C[C@]3(O)C(=CC(=O)[C@H]3C)[C@@H](C)CC[C@H]21
Activity [1]: inactive

CC(=O)O[C@@H]1/C=C(\CO)[C@H](OC(=O)CCc2ccccc2)C[C@H]2[C@@H](/C=C(\C)[C@@H]1O)[C@@]2(C)CO
Activity [1]: inactive

C=C1[C@@H](O)[C@@H]2[C@H](C[C@@H](O)/C(COC(=O)CCc3ccccc3)=C/[C@@H](O)[C@H]1OC(C)=O)[C@]2(C)CO
Activity [1]: inactive

C=C1CC[C@H]2[C@@H](/C=C(\C)CC[C@H]1O)[C@@H](C(C)(C)O)CC[C@@H]2C
Activity [1]: inactive
Activity [2]: Active

C=C1CC[C@@H](O)[C@]2(C)CC[C@H]3[C@@H]([C@@H]12)[C@@H](C(C)(C)O)CC[C@@H]3C
Activity [1]: inactive

CC1=C2C[C@@]3(C)CC(=O)[C@](O)(C(C)C)[C@@H]3CC[C@H](C)[C@@]2(O)CC1=O
Activity [1]: inactive

CC(C)[C@]1(O)C(=O)C[C@@]2(C)CC3=C([C@H](C)CC[C@@H]21)[C@H](O)CC3=O
Activity [1]: inactive

CC(=O)O[C@H]1/C(C)=C/[C@@H]2[C@H](C[C@@H](OC(=O)CCc3ccccc3)/C(CO)=C/[C@H]1O)[C@]2(C)CO
Activity [1]: inactive

CC(=O)OC/C1=C\[C@@H](O)[C@@H](OC(C)=O)/C(C)=C/[C@@H]2[C@H](C[C@H]1OC(=O)CCc1ccccc1)[C@]2(C)CO
Activity [1]: inactive

CC(=O)O[C@H]1OC=C(CO)[C@H]2[C@@H]1[C@@]1(CC[C@H]3[C@@H]2[C@@]3(CO)COC(=O)/C=C/c2ccccc2)CO1
Activity [1]: inactive

C=C1CC[C@H]2[C@@H](/C=C(\C)[C@H](OC(C)=O)[C@H](OC(C)=O)[C@@H]1OC(C)=O)C2(C)C
Activity [1]: inactive
Activity [3]: Active
fold change (FC) [4]: >10
Activity [5]: Dose-dependent effect
Activity [6]: Dose-dependent effect
Activity [7]: Active
Activity [8]: Dose-dependent effect
Activity [9]: Dose-dependent effect
Activity [10]: Active
Activity [11]: Active
Activity [12]: Active
Activity [13]: Active
Activity [14]: Active
Activity [15]: Active
Activity [2]: Active
